Results published in paper PMC3900249 (Clinical pharmacology and therapeutics, 2012).

How the values were obtained:
[1] = single warfarin dose studies, healthy volunteers (n = 5 or 6); cited from earlier work
[2] = tested on: CYP2C9-mediated (S)-warfarin 7-hydroxylation; assay: Prediction of in vivo warfarin drug interaction from [I]/KI and [I]u/KI,u; design: species or system human; details: equation 1

With `CC(=O)C[C@@H](c1ccccc1)c1c(O)c2ccccc2oc1=O` [(S)-warfarin] as the compound, how does the “actual increase in the mean AUC caused by the drug interaction with AMIO” value [1] read?
Its value is 27 to 110%.

What about the “predicted increase in AUC” value ([2]; sum of [I]/KI ratios of AMIO and circulating metabolites) of the same compound?
Its value is 6 fold.

What about the “predicted increase in AUC” value ([2]; sum of [I]u/KI,u ratios of AMIO and circulating metabolites) of the same compound?
The value was 6 fold.
